These results are taken from paper PMC5555576, “Selective small-chemical inhibitors of protein arginine methyltransferase 5 with anti-lung cancer activity” (PLoS ONE, 2017).

The assay concerns the target T1, PRMT5 (Homo sapiens, UniProt O14744).
T1 construct: His6; made in house; host or cells: E. coli BL21(ED3) [sic]
Kind of assay: Steady-state kinetic analysis of PRMT5 inhibition (time-dependent inhibition assay). The format is biochemical. How it is done: Different amounts of compound C2 or C5 were present in the final methylation reaction mixtures with 1.2 μg of PRMT5, 5 μM AdoMet, 2 μCi of H^3-AdoMet and various concentrations of SmD3. After a 10-, 20- or 30-min incubation at 30 °C or no incubation, the reaction mixtures were spread onto DE81 chromatography paper discs and the amounts of methylated products were quantified by liquid scintillation. Amounts (counts per minute [cpm]) of methylated products and incubation time (minutes) were plotted and reaction velocity (cpm per minute) was deduced.
To understand the mechanism of inhibition of identified compounds, we analyzed the kinetic pattern of inhibition using steady-state enzymatic measurements. The velocities of PRMT5 methylation of SmD3 were measured at several selected concentrations of compounds C2 and C5 over a range of SmD3 concentrations. Plotted in the double-reciprocal format with 1/velocity versus 1/[SmD3]
Fig 5 Steady-state kinetic analysis of PRMT5 inhibition by compounds C2 and C5. Double-reciprocal plot of reaction velocities (cpm per minute) versus concentrations of SmD3. Methylation reaction mixtures contained various concentrations of C2 (left) or C5 (right), various concentrations of SmD3, 1.2 μg of PRMT5 and 5 μM AdoMet. The mixtures were incubated for different times and the amounts of methylated products were quantified using DE81 paper and liquid scintillation. Reaction velocity was calculated as H^3 incorporation (cpm) into SmD3 per minute.

T1 sequence (O14744 whole entry): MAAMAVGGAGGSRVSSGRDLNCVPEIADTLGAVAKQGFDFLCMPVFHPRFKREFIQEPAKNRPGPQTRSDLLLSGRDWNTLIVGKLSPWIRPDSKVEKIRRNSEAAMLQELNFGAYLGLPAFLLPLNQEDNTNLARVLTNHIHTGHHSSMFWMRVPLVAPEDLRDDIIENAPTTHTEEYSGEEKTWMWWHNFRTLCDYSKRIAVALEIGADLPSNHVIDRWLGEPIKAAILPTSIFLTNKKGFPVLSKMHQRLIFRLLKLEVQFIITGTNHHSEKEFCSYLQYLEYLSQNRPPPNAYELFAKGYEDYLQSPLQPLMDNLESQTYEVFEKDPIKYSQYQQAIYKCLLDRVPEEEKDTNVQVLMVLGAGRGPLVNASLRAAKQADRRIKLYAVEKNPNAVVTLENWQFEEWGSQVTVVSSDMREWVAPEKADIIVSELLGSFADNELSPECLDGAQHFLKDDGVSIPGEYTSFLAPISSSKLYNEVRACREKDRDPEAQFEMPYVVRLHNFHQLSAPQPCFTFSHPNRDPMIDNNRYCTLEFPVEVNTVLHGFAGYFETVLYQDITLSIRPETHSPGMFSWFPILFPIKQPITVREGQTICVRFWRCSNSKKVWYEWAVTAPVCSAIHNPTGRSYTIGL

With `CCn1c(=O)[nH]c2cc(C(=O)Nc3ccc(OC)cc3)ccc2c1=O` [Compound C5], the “mode of inhibition with regard to SAM” value is reported as “not competitive inhibitors”. Moreover, for the setting “double-reciprocal plot”, the “mode of inhibition with regard to the SmD3 substrate” value is given as “competitive inhibitors”.
